Test results published in patent publication US12492188B2, “1H-benzo[D]imidazole derivatives as TLR9 inhibitors for the treatment of fibrosis” (BRISTOL-MYERS SQUIBB COMPANY, priority 2020, dated 2025).
Read-outs that look alike come from different tables or passages of the source.

Experiments:
Type in all cases: cell-based
human TLR9 = biological target: T1, human TLR9 (Homo sapiens, UniProt Q9NR96); experiment: TLR9 inhibition reporter assay (HEK-Blue cells, secreted embryonic alkaline phosphatase reporter)
T1 construct: host or cells: HEK-Blue cells (HEK293-derived reporter line)
T1 sequence (Q9NR96 26-1032): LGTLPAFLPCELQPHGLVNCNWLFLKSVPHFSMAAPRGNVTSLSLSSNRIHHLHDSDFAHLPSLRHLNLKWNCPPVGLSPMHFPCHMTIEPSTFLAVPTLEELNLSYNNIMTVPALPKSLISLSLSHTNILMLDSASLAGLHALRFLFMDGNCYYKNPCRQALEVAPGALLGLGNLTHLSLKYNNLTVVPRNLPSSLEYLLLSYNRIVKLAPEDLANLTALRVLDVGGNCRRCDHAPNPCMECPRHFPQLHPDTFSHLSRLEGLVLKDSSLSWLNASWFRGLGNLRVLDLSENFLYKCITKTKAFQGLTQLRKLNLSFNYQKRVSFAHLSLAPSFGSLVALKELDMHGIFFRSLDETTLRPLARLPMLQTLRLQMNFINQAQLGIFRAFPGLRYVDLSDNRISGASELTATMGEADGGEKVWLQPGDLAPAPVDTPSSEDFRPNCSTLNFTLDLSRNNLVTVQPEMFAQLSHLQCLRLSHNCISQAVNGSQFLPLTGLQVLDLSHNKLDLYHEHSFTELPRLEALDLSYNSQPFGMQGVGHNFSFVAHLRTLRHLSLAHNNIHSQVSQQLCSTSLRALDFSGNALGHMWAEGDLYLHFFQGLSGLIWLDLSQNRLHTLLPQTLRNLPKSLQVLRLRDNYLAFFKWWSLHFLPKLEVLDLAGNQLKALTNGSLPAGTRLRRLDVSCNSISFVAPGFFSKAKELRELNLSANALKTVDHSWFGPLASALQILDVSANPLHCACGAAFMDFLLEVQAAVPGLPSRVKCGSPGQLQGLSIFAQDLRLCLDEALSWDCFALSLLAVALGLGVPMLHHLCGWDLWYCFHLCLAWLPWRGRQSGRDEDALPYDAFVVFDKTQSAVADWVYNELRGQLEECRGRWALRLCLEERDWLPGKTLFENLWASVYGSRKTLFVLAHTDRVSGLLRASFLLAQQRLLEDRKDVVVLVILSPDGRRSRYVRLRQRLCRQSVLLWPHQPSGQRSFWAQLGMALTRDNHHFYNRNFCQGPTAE
In short: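 Read-out is SEAP colour from HEK-Blue Detection medium after 22 h at 37 °C, converted to percent inhibition between agonist-plus-DMSO and reference-inhibitor wells. Receptor-overexpressing HEK-Blue cells received compound over 0.05 nM–50 μM for 30 min before agonist: gardiquimod 7.5 μM for TLR7, R848 15.9 μM for TLR8, ODN2006 5 nM for TLR9.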

human TLR7 = biological target: T2, human TLR7 (Homo sapiens, UniProt Q9NYK1); experiment: TLR7 inhibition reporter assay (HEK-Blue cells, secreted embryonic alkaline phosphatase reporter); details: HEK-Blue cells overexpressing human TLR7, stimulated with gardiquimod 7.5 μM; read-out: TLR 7 IC50
T2 construct: host or cells: HEK-Blue cells (HEK293-derived reporter line)
T2 sequence (Q9NYK1 27-1049): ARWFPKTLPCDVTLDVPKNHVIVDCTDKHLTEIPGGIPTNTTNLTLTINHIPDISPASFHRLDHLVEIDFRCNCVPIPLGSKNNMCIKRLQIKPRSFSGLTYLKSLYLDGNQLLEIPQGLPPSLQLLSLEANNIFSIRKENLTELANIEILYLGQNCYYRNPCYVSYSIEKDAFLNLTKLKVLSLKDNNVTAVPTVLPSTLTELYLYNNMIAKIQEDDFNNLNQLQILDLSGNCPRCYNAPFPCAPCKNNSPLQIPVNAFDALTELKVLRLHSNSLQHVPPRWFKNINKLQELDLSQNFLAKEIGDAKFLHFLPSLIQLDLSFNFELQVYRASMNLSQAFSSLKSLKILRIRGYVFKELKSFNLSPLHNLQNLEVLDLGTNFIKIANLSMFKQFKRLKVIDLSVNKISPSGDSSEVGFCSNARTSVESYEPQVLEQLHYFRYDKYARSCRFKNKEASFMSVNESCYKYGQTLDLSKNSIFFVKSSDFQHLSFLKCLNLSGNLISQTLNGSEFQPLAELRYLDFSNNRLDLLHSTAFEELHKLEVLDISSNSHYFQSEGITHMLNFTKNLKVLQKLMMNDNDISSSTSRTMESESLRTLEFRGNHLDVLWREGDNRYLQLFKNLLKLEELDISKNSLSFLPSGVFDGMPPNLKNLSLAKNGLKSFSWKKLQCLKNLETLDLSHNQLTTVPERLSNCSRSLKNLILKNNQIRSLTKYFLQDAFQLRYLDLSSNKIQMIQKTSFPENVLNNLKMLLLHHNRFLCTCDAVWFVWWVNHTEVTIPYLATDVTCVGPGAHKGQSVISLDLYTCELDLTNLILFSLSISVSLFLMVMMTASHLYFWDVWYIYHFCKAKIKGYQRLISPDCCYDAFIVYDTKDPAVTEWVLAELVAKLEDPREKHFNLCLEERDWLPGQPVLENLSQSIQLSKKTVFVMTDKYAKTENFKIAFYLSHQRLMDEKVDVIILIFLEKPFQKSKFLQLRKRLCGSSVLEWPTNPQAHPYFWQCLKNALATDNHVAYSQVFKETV
Experimental: (§1) TLR7/8/9 Inhibition Reporter Assays
(§2) HEK-Blue™-cells (Invivogen) overexpressing human TLR7, TLR8 or TLR9 receptors were used for screening inhibitors of these receptors using an inducible SLAP (secreted embryonic alkaline phosphatase) reporter gene under the control of the […] minimal promoter fused to five NF-κB and AP-1-binding sites. Briefly, cells are seeded into Greiner 384 well plates (15000 cells per well for TLR7, 20,000 for TLR8 and 25,000 for TLR9) and then treated with test compounds in DMSO to yield a final dose response concentration range of 0.05 nM-50 μM. After a 30 minute compound pre-treatment at room temperature, the cells are then stimulated with a TLR7 ligand (gardiquimod at a final concentration of 7.5 μM), TLR8 ligand (R848 at a final concentration of 15.9 μM) or TLR9 ligand (ODN2006 at a final concentration of 5 nM) to activate NF-κB and AP-1 which induce the production of SLAP. After a 22 hour incubation at 37° C., […], SLAP levels are determined with the addition of HEK-Blue™ Detection reagent (Invivogen), a cell culture medium that allows for detection of SLAP, according to manufacturer's specifications. The percent inhibition is determined as the […] in the HEK-Blue signal present in wells treated with agonist plus DMSO alone compared to wells treated with a known inhibitor.

human TLR8 = biological target: T3, human TLR8 (Homo sapiens, UniProt Q9NR97); experiment: TLR8 inhibition reporter assay (HEK-Blue cells, secreted embryonic alkaline phosphatase reporter); details: HEK-Blue cells overexpressing human TLR8, stimulated with R848 15.9 μM; read-out: TLR 8 IC50
T3 construct: host or cells: HEK-Blue cells (HEK293-derived reporter line)
T3 sequence (Q9NR97 27-1041): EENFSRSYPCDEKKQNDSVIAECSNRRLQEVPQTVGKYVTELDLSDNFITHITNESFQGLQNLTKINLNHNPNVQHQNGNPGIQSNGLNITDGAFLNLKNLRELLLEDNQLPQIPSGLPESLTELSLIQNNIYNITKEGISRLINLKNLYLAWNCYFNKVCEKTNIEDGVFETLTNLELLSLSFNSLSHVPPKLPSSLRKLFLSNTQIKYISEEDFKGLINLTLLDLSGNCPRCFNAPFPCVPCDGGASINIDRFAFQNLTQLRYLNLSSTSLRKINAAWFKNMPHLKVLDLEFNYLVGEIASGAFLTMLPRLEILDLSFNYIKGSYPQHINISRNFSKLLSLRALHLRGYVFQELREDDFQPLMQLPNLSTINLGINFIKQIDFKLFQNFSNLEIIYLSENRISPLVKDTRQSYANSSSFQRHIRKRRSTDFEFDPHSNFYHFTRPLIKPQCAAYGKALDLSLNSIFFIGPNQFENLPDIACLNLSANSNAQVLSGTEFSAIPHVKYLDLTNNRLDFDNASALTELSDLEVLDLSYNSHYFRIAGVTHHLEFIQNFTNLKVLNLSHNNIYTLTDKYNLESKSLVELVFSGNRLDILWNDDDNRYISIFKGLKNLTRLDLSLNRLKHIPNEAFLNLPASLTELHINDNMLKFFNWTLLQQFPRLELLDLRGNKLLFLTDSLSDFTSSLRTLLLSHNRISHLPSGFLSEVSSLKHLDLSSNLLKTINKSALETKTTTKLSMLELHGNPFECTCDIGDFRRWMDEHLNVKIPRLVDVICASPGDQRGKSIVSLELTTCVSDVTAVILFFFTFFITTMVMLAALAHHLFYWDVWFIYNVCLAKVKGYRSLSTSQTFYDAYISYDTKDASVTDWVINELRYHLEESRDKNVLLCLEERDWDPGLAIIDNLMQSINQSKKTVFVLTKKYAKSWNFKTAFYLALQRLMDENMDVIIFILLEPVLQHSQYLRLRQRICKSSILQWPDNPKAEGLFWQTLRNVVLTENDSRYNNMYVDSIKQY
Experimental: as §1, §2

[1] = HEK-Blue cells overexpressing human TLR9, stimulated with ODN2006 5 nM, 22 hour incubation, reporter readout
[2] = HEK-Blue cells overexpressing human TLR9, stimulated with ODN2006 5 nM, read-out: TLR 9 IC50

| IC50 (human TLR9; [1]) [nM] | IC50 (human TLR7) [nM] | IC50 (human TLR8) [nM] | IC50 (human TLR9; [2]) [nM] | IC50 (human TLR9; HEK-Blue human TLR9 reporter cells) [nM] | SMILES |
| --- | --- | --- | --- | --- | --- |
| 24 | 2600 | > 50000 | – | – | COc1ccc(-c2nc3c(C)cc(C4C[C@H]5CC[C@@H](C4)N5C4CCN(C(C)C)CC4)cc3n2C)cc1OC (mixture of isomers) [Example 21, 2-(3,4-dimethoxyphenyl)-6-(8-(1-isopropylpiperidin-4-yl)-8-azabicyclo[3.2.1]octan-3-yl)-1,4-dimethyl-1H-benzo[d]imidazole] |
| 210 | 2500 | > 50000 | – | – | CCn1c(-c2ccc(OC)c(OC)c2)nc2ccc(C3CCN(C4CCN(C(C)C)CC4)CC3)cc21 (single isomer, unassigned) [Example 8, 2-(3,4-dimethoxyphenyl)-1-ethyl-6-(1′-isopropyl-[1,4′-bipiperidin]-4-yl)-1H-benzo[d]imidazole] |
| 250 | 2700 | 1300 | 249 | – | CCn1c(-c2ccc(OC)c(OC)c2)nc2cc(C3CCN(C4CCN(C(C)C)CC4)CC3)ccc21 (single isomer, unassigned) [Example 9, 2-(3,4-dimethoxyphenyl)-1-ethyl-5-(1′-isopropyl-[1,4′-bipiperidin]-4-yl)-1H-benzo[d]imidazole] |
| 25 | 6500 | > 50000 | – | – | COc1ccc(-c2nc3c(C)cc(C4CCN(C5CC6CCC(C5)N6CC(C)C)CC4)cc3n2C)cc1OC (single isomer, unassigned) [Example 17, 2-(3,4-dimethoxyphenyl)-6-(1-(8-isobutyl-8-azabicyclo[3.2.1]octan-3-yl)piperidin-4-yl)-1,4-dimethyl-1H-benzo[d]imidazole] |
| 29 | 7700 | > 50000 | – | – | COc1ccc(-c2nc3c(C)cc(C4CCN(C5CC6CCC(C5)N6CC(C)C)CC4)cc3n2C)cc1OC (single isomer, unassigned) [Example 18, 2-(3,4-dimethoxyphenyl)-6-(1-(8-isobutyl-8-azabicyclo[3.2.1]octan-3-yl)piperidin-4-yl)-1,4-dimethyl-1H-benzo[d]imidazole] |
| 850 | – | > 50000 | 852 | – | COc1ccc(-c2nc3cc(C4CCN(C5CCN(C6CC6)CC5)CC4)ccc3n2C)cc1OC [Example 35, 5-(1′-cyclopropyl-[1,4′-bipiperidin]-4-yl)-2-(3,4-dimethoxyphenyl)-1-methyl-1H-benzo[d]imidazole] |
| 590 | – | 4500 | 588 | – | COc1cc(-c2nc3c(C)cc(C4CCN(C5CC6CCC(C5)N6CC(C)C)CC4)cc3n2C)cn2ncnc12 (stereo not drawn) [Example 126, 6-(6-(1-(8-isobutyl-8-azabicyclo[3.2.1]octan-3-yl)piperidin-4-yl)-1,4-dimethyl-1H-benzo[d]imidazol-2-yl)-8-methoxy-[1,2,4]triazolo[1,5-a]pyridine] |
| – | – | > 50000 | 600 | – | Cn1c(-c2ccc(S(C)(=O)=O)cc2)nc2ccc(C3CCN(C4CC5CCC(C4)N5C4COC4)CC3)c(F)c21 (stereo not drawn) [Example 272, 7-fluoro-1-methyl-2-(4-(methylsulfonyl)phenyl)-6-(1-(8-(oxetan-3-yl)-8-azabicyclo[3.2.1]octan-3-yl)piperidin-4-yl)-1H-benzo[d]imidazole] |
| – | – | > 50000 | 104 | 100 | Cn1c(-c2ccc(S(C)(=O)=O)cc2)nc2c(F)cc(C3CCN(C4CC5CCC(C4)N5C4COC4)CC3)cc21 (stereo not drawn) [Example 287, 4-fluoro-1-methyl-2-(4-(methylsulfonyl)phenyl)-6-(1-(8-(oxetan-3-yl)-8-azabicyclo[3.2.1]octan-3-yl)piperidin-4-yl)-1H-benzo[d]imidazole] |
| 56 | – | 7300 | 56 | – | Cc1cc(-c2ccc(CN3CCC(N4CCCC4)CC3)c(F)c2)cc2c1nc(-c1ccc(S(C)(=O)=O)cc1)n2C [Example 387, 6-(3-fluoro-4-((4-(pyrrolidin-1-yl)piperidin-1-yl)methyl)phenyl)-1,4-dimethyl-2-(4-(methylsulfonyl)phenyl)-1H-benzo[d]imidazole] |
